We go through 22 compounds from patent publication US20090118274A1, “MONOCYCLIC AMINOPROPYL TETRAHYDRO-PYRAZOLO-PYRIDINE MODULATORS OF CATHEPSIN S” (priority 2007, published 2009).

pIC50: −log10 of the molar value.

For one assay, the target named is T1, Recombinant human cathepsin S (CatS) (Homo sapiens, UniProt P25774).
T1 construct: made in house
T1 sequence (P25774 115-331): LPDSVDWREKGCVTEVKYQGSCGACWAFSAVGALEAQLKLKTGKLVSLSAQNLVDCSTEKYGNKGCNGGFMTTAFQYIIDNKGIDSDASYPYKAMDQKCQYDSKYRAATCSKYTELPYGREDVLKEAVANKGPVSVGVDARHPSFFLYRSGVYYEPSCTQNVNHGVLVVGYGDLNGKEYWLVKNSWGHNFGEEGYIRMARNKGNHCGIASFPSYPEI
As to the kind of experiment: Recombinant human cathepsin S (CatS) fluorogenic substrate inhibition assay. It counts as biochemical.
Details: not given
How it is done:
Recombinant human cathepsin S (CatS) was expressed in the baculovirus system and purified in one step with a thiopropyl-sepharose column. […] The assay is run in 150 mM sodium acetate pH 5.0 containing 1.5 mM DTT and 150 mM NaCl. […] Measurements are taken every min for 20 min. The rate is calculated from the slope of the increase in fluorescence and the percent inhibition is calculated from this.
In the case of `CC(C)CC(=O)NCc1cc(-c2nn(CC(O)CN3CCC(N(C)C)C3)c3c2CN(S(C)(=O)=O)CC3)ccc1C(F)(F)F` (stereo not shown) [Example 249, N-(5-{1-[3-(3-Dimethylamino-pyrrolidin-1-yl)-2-hydroxy-propyl]-5-methanesulfonyl-4,5,6,7-tetrahydro-1H-pyrazolo[4,3-c]pyridin-3-yl}-2-trifluoromethyl-benzyl)-3-methyl-butyramide], the pIC50 (as a rule, the IC50 on a negative log10 scale, so that one unit is a factor of ten) is 6.35.
Take `CN1CCN(CC(O)Cn2nc(-c3ccc(C(F)(F)F)c(CNC(=O)c4ccc(F)cc4)c3)c3c2CCN(S(C)(=O)=O)C3)CC1` (stereo not shown) [Example 227, 4-Fluoro-N-(5-{1-[2-hydroxy-3-(4-methyl-piperazin-1-yl)-propyl]-5-methanesulfonyl-4,5,6,7-tetrahydro-1H-pyrazolo[4,3-c]pyridin-3-yl}-2-trifluoromethyl-benzyl)-benzamide]: the pIC50 is 6.12.

Still in this assay, the particulars now being: average of results obtained; substrate Z-Valine-Valine-Arginine-AMC 10 μM, pH 5.0; read-out: CatS IC50.
Take `CC(=O)NC1CCN(CC(O)Cn2nc(-c3ccc(C(F)(F)F)c(CNC(=O)CC(C)C)c3)c3c2CCN(S(C)(=O)=O)C3)CC1` (stereo not shown) [Example 250, N-(5-{1-[3-(4-Acetylamino-piperidin-1-yl)-2-hydroxy-propyl]-5-methanesulfonyl-4,5,6,7-tetrahydro-1H-pyrazolo[4,3-c]pyridin-3-yl}-2-trifluoromethyl-benzyl)-3-methyl-butyramide]: the pIC50 is 7.30.
For `COC1CCC(C(=O)NCc2cc(-c3nn(CC(O)CN4CCCC4)c4c3CN(S(C)(=O)=O)CC4)ccc2C(F)(F)F)CC1` (stereo not shown) [Example 186, 4-Methoxy-cyclohexanecarboxylic acid 5-[1-(2-hydroxy-3-pyrrolidin-1-yl-propyl)-5-methanesulfonyl-4,5,6,7-tetrahydro-1H-pyrazolo[4,3-c]pyridin-3-yl]-2-trifluoromethyl-benzylamide], the negative logarithm of the IC50 (pIC50) is 5.51.
Turning to `CC1CCN(CC(O)Cn2nc(-c3ccc(C(F)(F)F)c(CNC(=O)c4ccc(F)cc4)c3)c3c2CCN(S(C)(=O)=O)C3)CC1` (stereo not shown) [Example 22, 4-Fluoro-N-(5-{1-[2-hydroxy-3-(4-methyl-piperidin-1-yl)-propyl]-5-methanesulfonyl-4,5,6,7-tetrahydro-1H-pyrazolo[4,3-c]pyridin-3-yl}-2-trifluoromethyl-benzyl)-benzamide], the negative logarithm of the IC50 (pIC50) was 7.00.
Take `CS(=O)(=O)N1CCc2c(c(-c3ccc(C(F)(F)F)c(CNCc4ccccc4)c3)nn2CC(O)CN2CCCC2)C1` (stereo not shown) [Example 205, 1-{3-[3-(Benzylamino-methyl)-4-trifluoromethyl-phenyl]-5-methanesulfonyl-4,5,6,7-tetrahydro-pyrazolo[4,3-c]pyridin-1-yl}-3-pyrrolidin-1-yl-propan-2-ol]: the pIC50 is 5.79.
Same read-out and setting: the value for `CN(C)c1ccccc1C(=O)NCc1cc(-c2nn(CC(O)CN3CCCC3)c3c2CN(S(C)(=O)=O)CC3)ccc1C(F)(F)F` (stereo not shown) [Example 239, 2-Dimethylamino-N-{5-[1-(2-hydroxy-3-pyrrolidin-1-yl-propyl)-5-methanesulfonyl-4,5,6,7-tetrahydro-1H-pyrazolo[4,3-c]pyridin-3-yl]-2-trifluoromethyl-benzyl}-benzamide] was 6.02; that for `CC(C)(C)OC(=O)NC1CCN(CC(O)Cn2nc(-c3ccc(Cl)c(CNC(=O)c4ccc(F)cc4)c3)c3c2CCN(S(C)(=O)=O)C3)CC1` (stereo not shown) [Example 78, {1-[3-(3-{4-Chloro-3-[(4-fluoro-benzoylamino)-methyl]-phenyl}-5-methanesulfonyl-4,5,6,7-tetrahydro-pyrazolo[4,3-c]pyridin-1-yl)-2-hydroxy-propyl]-piperidin-4-yl}-carbamic acid tert-butyl ester] was 7.52.
The same measure, in the same setting: the figure for `CS(=O)(=O)N1CCc2c(c(-c3ccc(C(F)(F)F)c(CNC(=O)c4cccc(Cl)c4)c3)nn2CC(O)CN2CCCC2)C1` (stereo not shown) [Example 166, 3-Chloro-N-{5-[1-(2-hydroxy-3-pyrrolidin-1-yl-propyl)-5-methanesulfonyl-4,5,6,7-tetrahydro-1H-pyrazolo[4,3-c]pyridin-3-yl]-2-trifluoromethyl-benzyl}-benzamide] is 6.34; for `CS(=O)(=O)N1CCc2c(c(-c3ccc(C(F)(F)F)c(CNC(=O)C4CCCCCC4)c3)nn2CC(O)CN2CCC3(CCNC3=O)CC2)C1` (stereo not shown) [Example 167, Cycloheptanecarboxylic acid 5-{1-[2-hydroxy-3-(1-oxo-2,8-diaza-spiro[4.5]dec-8-yl)-propyl]-5-methanesulfonyl-4,5,6,7-tetrahydro-1H-pyrazolo[4,3-c]pyridin-3-yl}-2-trifluoromethyl-benzylamide] it is 6.31.
Same read-out and setting: the figure for `CS(=O)(=O)N1CCc2c(c(-c3ccc(C(F)(F)F)c(CNC(=O)c4cccc(F)c4)c3)nn2CC(O)CN2CCCC2)C1` (stereo not shown) [Example 215, 3-Fluoro-N-{5-[1-(2-hydroxy-3-pyrrolidin-1-yl-propyl)-5-methanesulfonyl-4,5,6,7-tetrahydro-1H-pyrazolo[4,3-c]pyridin-3-yl]-2-trifluoromethyl-benzyl}-benzamide] is 6.24; for `CS(=O)(=O)N1CCc2c(c(-c3ccc(C(F)(F)F)c(CNc4ncccn4)c3)nn2CC(O)CN2CCCC2)C1` (stereo not shown) [Example 65, 1-{5-Methanesulfonyl-3-[3-(pyrimidin-2-ylaminomethyl)-4-trifluoromethyl-phenyl]-4,5,6,7-tetrahydro-pyrazolo[4,3-c]pyridin-1-yl}-3-pyrrolidin-1-yl-propan-2-ol] it is 4.78; for `CS(=O)(=O)N1CCc2c(c(-c3ccc(Cl)c(CNC(=O)c4ccc(Cl)cc4)c3)nn2CCCN2CCCC2)C1` [Example 86, 4-Chloro-N-{2-chloro-5-[5-methanesulfonyl-1-(3-pyrrolidin-1-yl-propyl)-4,5,6,7-tetrahydro-1H-pyrazolo[4,3-c]pyridin-3-yl]-benzyl}-benzamide] it is 6.02.
`CC(=O)NC1CCN(CC(O)Cn2nc(-c3ccc(Cl)c(CNC(=O)c4ccc(F)cc4)c3)c3c2CCN(S(C)(=O)=O)C3)CC1` (stereo not shown) [Example 13, N-(5-{1-[3-(4-Acetylamino-piperidin-1-yl)-2-hydroxy-propyl]-5-methanesulfonyl-4,5,6,7-tetrahydro-1H-pyrazolo[4,3-c]pyridin-3-yl}-2-chloro-benzyl)-4-fluoro-benzamide]: the pIC50 is 7.40.
As to `NC(=O)N1CCc2c(c(-c3ccc(C(F)(F)F)c(CNC(=O)c4ccc(F)cc4)c3)nn2CC(O)CN2CCC3(CCNC3=O)CC2)C1` (stereo not shown) [Example 9, 3-{3-[(4-Fluoro-benzoylamino)-methyl]-4-trifluoromethyl-phenyl}-1-[2-hydroxy-3-(1-oxo-2,8-diaza-spiro[4.5]dec-8-yl)-propyl]-1,4,6,7-tetrahydro-pyrazolo[4,3-c]pyridine-5-carboxylic acid amide], the negative-log IC50 (pIC50) was 7.40.
Still for that read-out and setting: the value for `CS(=O)(=O)N1CCc2c(c(-c3ccc(C(F)(F)F)c(CNC(=O)c4ccc(C(F)(F)F)cc4)c3)nn2CC(O)CN2CCCC2)C1` (stereo not shown) [Example 225, N-{5-[1-(2-Hydroxy-3-pyrrolidin-1-yl-propyl)-5-methanesulfonyl-4,5,6,7-tetrahydro-1H-pyrazolo[4,3-c]pyridin-3-yl]-2-trifluoromethyl-benzyl]-4-trifluoromethyl-benzamide] was 6.12; that for `CS(=O)(=O)N1CCc2c(c(-c3ccc(Cl)c(CNC(=O)c4ccc(F)cc4)c3)nn2CC(O)CN2CCCC(C(N)=O)C2)C1` (stereo not shown) [Example 81, 1-[3-(3-{4-Chloro-3-[(4-fluoro-benzoylamino)-methyl]-phenyl}-5-methanesulfonyl-4,5,6,7-tetrahydro-pyrazolo[4,3-c]pyridin-1-yl)-2-hydroxy-propyl]-piperidine-3-carboxylic acid amide] was 6.77; that for `CS(=O)(=O)N1CCc2c(c(-c3ccc(C(F)(F)F)c(CNC(=O)c4ccc(F)cc4)c3)nn2CC(O)CN2CCCC(O)C2)C1` (stereo not shown) [Example 92, 4-Fluoro-N-(5-{1-[2-hydroxy-3-(3-hydroxy-piperidin-1-yl)-propyl]-5-methanesulfonyl-4,5,6,7-tetrahydro-1H-pyrazolo[4,3-c]pyridin-3-yl}-2-trifluoromethyl-benzyl)-benzamide] was 6.77.
On the same count and under the same terms, the value for `CS(=O)(=O)N1CCc2c(c(-c3ccc(C(F)(F)F)c(CNC(=O)c4ccc(O)cc4)c3)nn2CC(O)CN2CCC3(CCNC3=O)CC2)C1` (stereo not shown) [Example 141, 4-Hydroxy-N-(5-{1-[2-hydroxy-3-(1-oxo-2,8-diaza-spiro[4.5]dec-8-yl)-propyl]-5-methanesulfonyl-4,5,6,7-tetrahydro-1H-pyrazolo[4,3-c]pyridin-3-yl}-2-trifluoromethyl-benzyl)-benzamide] was 7.30; that for `O=C(NCc1cc(-c2nn(CC(O)CN3CCC4(CCNC4=O)CC3)c3c2CN(C(=O)CO)CC3)ccc1C(F)(F)F)c1ccc(F)cc1` (stereo not shown) [Example 8, 4-Fluoro-N-(5-{5-(2-hydroxy-acetyl)-1-[2-hydroxy-3-(1-oxo-2,8-diazaspiro[4.5]dec-8-yl)-propyl]-4,5,6,7-tetrahydro-1H-pyrazolo[4,3-c]pyridin-3-yl}-2-trifluoromethyl-benzyl)-benzamide] was 7.70; that for `CS(=O)(=O)N1CCc2c(c(-c3ccc(C(F)(F)F)c(CNC(=O)c4ccc(F)cc4)c3)nn2CC(O)CN2CCC(CCO)CC2)C1` (stereo not shown) [Example 91, 4-Fluoro-N-[5-(1-{2-hydroxy-3-[4-(2-hydroxy-ethyl)-piperidin-1-yl]-propyl}-5-methanesulfonyl-4,5,6,7-tetrahydro-1H-pyrazolo[4,3-c]pyridin-3-yl)-2-trifluoromethyl-benzyl]-benzamide] was 6.80.
On the same count and under the same terms, the value for `CC(C)=CC(=O)NCc1cc(-c2nn(CC(O)CN3CCCC(CN(C)C)C3)c3c2CN(S(C)(=O)=O)CC3)ccc1C(F)(F)F` (stereo not shown) [Example 271, 3-Methyl-but-2-enoic acid 5-{1-[3-(3-dimethylaminomethyl-piperidin-1-yl)-2-hydroxy-propyl]-5-methanesulfonyl-4,5,6,7-tetrahydro-1H-pyrazolo[4,3-c]pyridin-3-yl}-2-trifluoromethyl-benzylamide] was 6.24.
